From ChEMBL document CHEMBL3507680, “University of Dundee, Gates Library screen for HepG2 cell viability”

Test: Human HepG2 cell viability assay in 384 well format
Type: toxicity, cell-based
Parameters: dose 125 nL, time 70.5 hour; cytotoxicity at 70.5 h: concentration not given beside the values
Conditions: HepG2 cells, read-out: Inhibition

Row | SMILES | cytotoxicity at 70.5 h
1 | CC(C)c1n[nH]c(C2CN(C(=O)CCn3ccccc3=O)CCO2)n1 (centres undefined) | -2.51%
2 | COc1ccc(Cl)cc1CCNC(=O)N(C)CC1CCOC1 (centres undefined) | -1.13%
3 | CC(C)Oc1ncnc2c1CCN(c1cc(C(F)(F)F)ncn1)CC2 | 4.68%
4 | COCCn1cc(C(=O)N2CCCC2c2ccc(F)cc2)ccc1=O (centres undefined) | -1.67%
5 | CC(C)c1nn(C)c(N(C)C)c1CNCc1cccc2c1OCO2 | -3.25%
6 | Cn1cnc2c1CCN(Cc1nc(COc3ccc(F)cc3)no1)C2 | 10.6%
7 | COC(=O)[C@@H]1Cc2ncn(C)c2CN1S(=O)(=O)c1ccc(OC)cc1 | -3.58%
8 | O=C(NCCN1CCOCC1)NCc1ncc(-c2ccccc2)o1 | -11.5%
9 | Cc1ncsc1CCCn1ccnc1-c1cc2n(n1)CCCNC2 | -9.03%
10 | COC[C@@H]1CC[C@H]2[C@H](CCN2S(=O)(=O)c2ccc(C)cc2)O1 | -4.48%
11 | CN(C)C1CCC2(CCN(Cc3nccn3C)CC2)c2ccccc21 (centres undefined) | -4.41%
12 | Cc1ccc(NC2CCN(C(=O)CCc3cscn3)CC2)nn1 | 11.4%
13 | Cc1ncsc1C(=O)N1CCC(O)(CN2CCc3ccccc3C2)C1 (centres undefined) | 10.1%
14 | Cc1noc(C)c1CN(C)C(=O)C1CCCN1S(N)(=O)=O (centres undefined) | 17.7%
15 | O=C(NCC1(c2ccc(F)cc2)CCC1)N1CCC2(CCOCC2)C1 | 7.66%
16 | COc1ccc(F)c(F)c1CN1CCN(CC(C)C)C(=O)C1C (centres undefined) | 25%
17 | O=C(c1cc(Cl)c2c(c1)OCCCO2)N(CC1CCOC1)C1CC1 (centres undefined) | -7.67%
18 | c1cnnc(NCC2CN(Cc3cccc4c3OCCO4)CCO2)c1 (centres undefined) | -20.6%
19 | O=C(c1ccsc1)N1CCC(Nc2cccnn2)CC1 | -3.37%
20 | c1ccc(CN2C[C@@H]3CC[C@H](C2)N(Cc2nnc(C4CC4)o2)C3)cc1 | -8.78%
21 | Cc1ccc(CN(C)C(=O)NCC(=O)NC(C)(C)C)s1 | -3.18%
22 | c1cncc(CN2CCC(NCCc3ccc4c(c3)OCO4)CC2)c1 | 0.189%

Row | SMILES | cytotoxicity at 70.5 h
23 | Cn1cc(-c2ncc3c(c2C(=O)O)CCN(CC2CCOC2)C3)cn1 (centres undefined) | -3.12%
24 | CCC(NC(=O)CS(=O)(=O)C1CCCC1)c1cc(F)ccc1F (centres undefined) | -7.05%
25 | Cc1nc(C)c(CC(=O)Nc2nc(C)c(C)s2)c(=O)[nH]1 | -17.1%
26 | O=C(c1ccccc1)N(CC1CC1)c1cccnc1 | -1.58%
27 | Cc1ccc(CN(Cc2cc(C)no2)C2CC2)cc1 | -3.87%
28 | COc1ccccc1C(O)CNC(=O)NCc1cc[nH]n1 (centres undefined) | -4.26%
29 | CCN(Cc1cc(Cl)ccc1OC)Cc1ncnn1CC | 1.58%
30 | O=C(NC1CCCCC1)N1CCn2c(nnc2C2CCCN2)C1 (centres undefined) | -12.5%
31 | Cn1cc(C2CC(=O)NC23CCN(C(=O)C2CC=CC2)CC3)cn1 (centres undefined) | 18.7%
32 | CO[C@@H]1CN(c2ccccc2)S(=O)(=O)[C@@]12CCN(C)C2 | -7.99%
33 | CCOCc1ncn2c1CN(S(=O)(=O)c1cccc(C)c1)CC2 | -1.4%
34 | CCOC[C@@H]1CCC[C@@]12CN(Cc1nccs1)CCO2 | 0.476%
35 | COc1cccc(OC)c1-c1c[nH]c(C)n1 | -19.9%
36 | CC(C)c1ccc(-n2cc(O)c(C(=O)O)n2)cc1 | -5.79%
37 | CN(C)CC1(O)CCN(S(=O)(=O)c2ccc(F)cc2)C1 (centres undefined) | 30.9%
38 | CC(=O)N1CC(=O)N(c2cnn(C)c2)CC12CCN(CC1CC1)C2 (centres undefined) | 1.31%
39 | Cc1nc(CN2CCCN(CC(=O)N(C)CCC#N)CC2)no1 | -9.21%
40 | CC1=Nc2c(c(=O)[nH]n2C2CCCC2)C(c2ccc(O)cc2)S1 (centres undefined) | -22.9%
41 | Cc1nc(CN2CCO[C@@H]3CN(Cc4ccsc4)C[C@@H]3C2)cs1 | 0.892%
42 | CC(=O)N1CCCC1c1cc(N2CCN(CC3CC3)CC2)cc(C)n1 (centres undefined) | -1.76%
43 | CNS(=O)(=O)c1ccc(C(=O)N2CCCC2c2ccccc2C)o1 (centres undefined) | -1.59%
44 | O=C(CSC(F)(F)F)N1CCC2(CCCN(C3CCOCC3)C2=O)C1 (centres undefined) | 15%
